# Results taken from US12398154B2, “Azaquinazoline pan-KRas inhibitors” (Mirati Therapeutics, Inc., priority 2020, dated 2025).
# Legend:
# Assay in all cases: biochemical
# KRas G12D = KRas G12D (Homo sapiens, UniProt P01116, G12D);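 further: TR-FRET displacement binding assay on KRas, read after a one-hour incubation at room temperature, IC50 fitted from percent-of-control values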
# Description: (§1) The ability of a compound to bind to KRas was measured using a TR-FRET displacement assay. […] After a 60-minute incubation at room temperature, the reaction was measured using a BMG LABTECH CLARIO star Plus via TR-FRET. […] The POC values were fit to a 4-parameter IC50 equation and the IC50 value reported.
# KRas G12R = KRas G12R (Homo sapiens, UniProt P01116, G12R);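 further: TR-FRET displacement assay of compound binding to KRas, read after one hour at room temperature, potency from a four-parameter fit of percent-of-control values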
# Chain of KRas G12R (P01116 1-169 isoform P01116-2 G12R): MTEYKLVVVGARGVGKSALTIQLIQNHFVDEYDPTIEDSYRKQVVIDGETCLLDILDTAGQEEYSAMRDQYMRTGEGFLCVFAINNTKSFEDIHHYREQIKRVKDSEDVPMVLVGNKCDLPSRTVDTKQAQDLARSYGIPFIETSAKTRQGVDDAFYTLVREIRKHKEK
# Description: as §1
# KRas G12V = KRas G12V (Homo sapiens, UniProt P01116, G12V);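 further: KRas binding measured by TR-FRET displacement at room temperature, IC50 fitted from percent of control values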
# Chain of KRas G12V (P01116 1-169 isoform P01116-2 G12V): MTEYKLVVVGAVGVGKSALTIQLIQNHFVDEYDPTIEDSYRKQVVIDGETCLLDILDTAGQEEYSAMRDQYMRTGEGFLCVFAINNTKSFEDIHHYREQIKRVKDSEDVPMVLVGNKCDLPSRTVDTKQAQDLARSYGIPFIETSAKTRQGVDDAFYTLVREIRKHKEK
# Description: as §1
# Chain of KRas G12D (P01116 1-169 isoform P01116-2 G12D): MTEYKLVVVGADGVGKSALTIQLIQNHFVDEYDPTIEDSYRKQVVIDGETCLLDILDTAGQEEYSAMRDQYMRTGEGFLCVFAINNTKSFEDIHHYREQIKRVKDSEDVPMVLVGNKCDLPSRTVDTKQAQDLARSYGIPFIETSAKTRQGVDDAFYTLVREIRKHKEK
SMILES,IC50 (KRas G12D),IC50 (KRas G12R),IC50 (KRas G12V)
"CC1(O)CCCN(c2nc(OCC34CCCN3CCC4)nc3c(F)c(-c4cccc5scnc45)ncc23)C1 (stereo not drawn) [Example 68, 1-(7-(benzo[d]thiazol-4-yl)-8-fluoro-2-((hexahydro-1H-pyrrolizin-7a-yl)methoxy)pyrido[4,3-d]pyrimidin-4-yl)-3-methylpiperidin-3-ol]",11.6 µM,27.6 µM,17 µM
"CC1(O)CCCN(c2nc(OCC34CCCN3CCC4)nc3c(F)c(-c4cccc5ccccc45)ncc23)C1 (stereo not drawn) [Example 69, 1-(8-fluoro-2-((hexahydro-1H-pyrrolizin-7a-yl)methoxy)-7-(naphthalen-1-yl)pyrido[4,3-d]pyrimidin-4-yl)-3-methylpiperidin-3-ol]",2.09 µM,4.17 µM,2.73 µM
"O=C1NCCC2(CCCN(c3nc(OCC45CCCN4CCC5)nc4c(F)c(-c5cccc6cccc(F)c56)ncc34)C2)N1 (stereo not drawn) [Example 72, 8-(8-fluoro-7-(8-fluoronaphthalen-1-yl)-2-((tetrahydro-1H-pyrrolizin-7a(5H)-yl)methoxy)pyrido[4,3-d]pyrimidin-4-yl)-1,3,8-triazaspiro[5.5]undecan-2-one]",14 µM,14 µM,10.8 µM
"OC1CC2CC(C1)N(c1nc(OCC34CCCN3CCC4)nc3c(F)c(-c4cccc5cccc(F)c45)ncc13)C2 (stereo not drawn) [Example 76, 6-(8-fluoro-7-(8-fluoronaphthalen-1-yl)-2-((hexahydro-1H-pyrrolizin-7a-yl)methoxy)pyrido[4,3-d]pyrimidin-4-yl)-6-azabicyclo[3.2.1]octan-3-ol]",15.5 µM,8.87 µM,3.15 µM
"CN(Cc1cccnc1N)c1nc(OCC23CCCN2CCC3)nc2c(F)c(-c3cccc4cccc(F)c34)ncc12 [Example 79, N-((2-aminopyridin-3-yl)methyl)-8-fluoro-7-(8-fluoronaphthalen-1-yl)-N-methyl-2-((tetrahydro-1H-pyrrolizin-7a(5H)-yl)methoxy)pyrido[4,3-d]pyrimidin-4-amine]",15.5 µM,0.65 µM,0.539 µM
"Fc1c(-c2cccc3cccc(Cl)c23)ncc2c(N3CCCC(c4c[nH]nn4)C3)nc(OCC34CCCN3CCC4)nc12 (stereo not drawn) [Example 108, 4-(3-(1H-1,2,3-triazol-4-yl)piperidin-1-yl)-7-(8-chloronaphthalen-1-yl)-8-fluoro-2-((tetrahydro-1H-pyrrolizin-7a(5H)-yl)methoxy)pyrido[4,3-d]pyrimidine]",19.7 µM,4.19 µM,8.1 µM
CC1(O)CCCN(c2nc(OCC34CCCN3CCC4)nc3c(F)c(-c4cc(O)cc5ccccc45)ncc23)C1 (stereo not drawn) [Example 151],0.012 µM,0.009 µM,0.008 µM
"CCc1c(F)ccc2cc(O)cc(-c3ncc4c(N(C)Cc5cn[nH]c5)nc(OC[C@@]56CCCN5C[C@H](F)C6)nc4c3F)c12 [Example 163, 4-(4-(((1H-pyrazol-4-yl)methyl)(methyl)amino)-8-fluoro-2-(((2R,7aS)-2-fluorohexahydro-1H-pyrrolizin-7a-yl)methoxy)pyrido[4,3-d]pyrimidin-7-yl)-5-ethyl-6-fluoronaphthalen-2-ol]",0.095 µM,0.017 µM,0.014 µM
"CN1CCC[C@H]1COc1nc(N2CCOCC2)c2cnc(-c3cc(O)cc4ccccc34)c(F)c2n1 [Example 195, (S)-4-(8-fluoro-2-((1-methylpyrrolidin-2-yl)methoxy)-4-morpholinopyrido[4,3-d]pyrimidin-7-yl)naphthalen-2-ol]",16.6 µM,1.71 µM,4.91 µM
"CN(CCC(N)=O)c1nc(OCC23CCCN2CCC3)nc2c(F)c(-c3cccc4cccc(F)c34)ncc12 [Example 226, 3-((8-fluoro-7-(8-fluoronaphthalen-1-yl)-2-((hexahydro-1H-pyrrolizin-7a-yl)methoxy)pyrido[4,3-d]pyrimidin-4-yl)(methyl)amino)propanamide]",6.07 µM,51.9 µM,14.1 µM

# Next, values leading:
IC50 (KRas G12D),IC50 (KRas G12R),IC50 (KRas G12V),SMILES
≥ 100 µM,9.18 µM,19.3 µM,"Nc1n[nH]c(CCNc2nc(OCC34CCCN3CCC4)nc3c(F)c(-c4cccc5cccc(F)c45)ncc23)n1 [Example 238, N-(2-(3-amino-1H-1,2,4-triazol-5-yl)ethyl)-8-fluoro-7-(8-fluoronaphthalen-1-yl)-2-((hexahydro-1H-pyrrolizin-7a-yl)methoxy)pyrido[4,3-d]pyrimidin-4-amine]"
17.2 µM,8.62 µM,13.6 µM,"NC(=O)NC1CCCN(c2nc(OCC34CCCN3CCC4)nc3c(F)c(-c4cccc5cccc(F)c45)ncc23)C1 (stereo not drawn) [Example 241, 1-(1-(8-fluoro-7-(8-fluoronaphthalen-1-yl)-2-((hexahydro-1H-pyrrolizin-7a-yl)methoxy)pyrido[4,3-d]pyrimidin-4-yl)piperidin-3-yl)urea]"
2.99 µM,9.83 µM,11.7 µM,"Fc1c(-c2cccc3cccc(F)c23)ncc2c(N3CCCn4nccc4C3)nc(OCC34CCCN3CCC4)nc12 [Example 245, 4-(7,8-dihydro-4H-pyrazolo[1,5-a][1,4]diazepin-5(6H)-yl)-8-fluoro-7-(8-fluoronaphthalen-1-yl)-2-((hexahydro-1H-pyrrolizin-7a-yl)methoxy)pyrido[4,3-d]pyrimidine]"
6.41 µM,11.3 µM,22.1 µM,"Fc1c(-c2cccc3cccc(F)c23)ncc2c(N3CCCc4ncccc4C3)nc(OCC34CCCN3CCC4)nc12 [Example 246, 6-(8-fluoro-7-(8-fluoronaphthalen-1-yl)-2-((hexahydro-1H-pyrrolizin-7a-yl)methoxy)pyrido[4,3-d]pyrimidin-4-yl)-6,7,8,9-tetrahydro-5H-pyrido[3,2-c]azepine]"
6.81 µM,10.5 µM,9.78 µM,"NS(=O)(=O)OC1CCCN(c2nc(OCC34CCCN3CCC4)nc3c(F)c(-c4cccc5cccc(F)c45)ncc23)C1 (stereo not drawn) [Example 248, 1-(8-fluoro-7-(8-fluoronaphthalen-1-yl)-2-((tetrahydro-1H-pyrrolizin-7a(5H)-yl)methoxy)pyrido[4,3-d]pyrimidin-4-yl)piperidin-3-yl sulfamate]"
2.84 µM,7.91 µM,10.8 µM,"Cc1cc2n(n1)CCCN(c1nc(OCC34CCCN3CCC4)nc3c(F)c(-c4cccc5cccc(F)c45)ncc13)C2 [Example 254, 8-fluoro-7-(8-fluoronaphthalen-1-yl)-2-((hexahydro-1H-pyrrolizin-7a-yl)methoxy)-4-(2-methyl-7,8-dihydro-4H-pyrazolo[1,5-a][1,4]diazepin-5(6H)-yl)pyrido[4,3-d]pyrimidine]"
6.23 µM,15.1 µM,11 µM,"OC1CN(c2nc(OCC34CCCN3CCC4)nc3c(F)c(-c4cccc5cccc(F)c45)ncc23)Cc2ccnn2C1 (stereo not drawn) [Example 255, 5-(8-fluoro-7-(8-fluoronaphthalen-1-yl)-2-((hexahydro-1H-pyrrolizin-7a-yl)methoxy)pyrido[4,3-d]pyrimidin-4-yl)-5,6,7,8-tetrahydro-4H-pyrazolo[1,5-a][1,4]diazepin-7-ol]"
8.16 µM,9.86 µM,13.6 µM,"CN(C)c1cc2n(n1)CCCN(c1nc(OCC34CCCN3CCC4)nc3c(F)c(-c4cccc5cccc(F)c45)ncc13)C2 [Example 264, 5-(8-fluoro-7-(8-fluoronaphthalen-1-yl)-2-((hexahydro-1H-pyrrolizin-7a-yl)methoxy)pyrido[4,3-d]pyrimidin-4-yl)-N,N-dimethyl-5,6,7,8-tetrahydro-4H-pyrazolo[1,5-a][1,4]diazepin-2-amine]"
6.06 µM,13.9 µM,5.25 µM,"O=C1CC2(CCCCN(c3nc(OCC45CCCN4CCC5)nc4c(F)c(-c5cccc6cccc(F)c56)ncc34)C2)N1 (stereo not drawn) [Example 266, 6-(8-fluoro-7-(8-fluoronaphthalen-1-yl)-2-((hexahydro-1H-pyrrolizin-7a-yl)methoxy)pyrido[4,3-d]pyrimidin-4-yl)-1,6-diazaspiro[3.6]decan-2-one]"
11.3 µM,8.88 µM,6.44 µM,"OC[C@@H]1CCCN(c2nc(OCC34CCCN3CCC4)nc3c(F)c(-c4cccc5cccc(F)c45)ncc23)C1 [Example 268, (R)-(1-(8-fluoro-7-(8-fluoronaphthalen-1-yl)-2-((hexahydro-1H-pyrrolizin-7a-yl)methoxy)pyrido[4,3-d]pyrimidin-4-yl)piperidin-3-yl)methanol]"
34.3 µM,3.62 µM,3.39 µM,"O=S1(=O)CCC(Nc2nc(OCC34CCCN3CCC4)nc3c(F)c(-c4cccc5cccc(F)c45)ncc23)C1 (stereo not drawn) [Example 279, 3-((8-fluoro-7-(8-fluoronaphthalen-1-yl)-2-((hexahydro-1H-pyrrolizin-7a-yl)methoxy)pyrido[4,3-d]pyrimidin-4-yl)amino)tetrahydrothiophene 1,1-dioxide]"
1.48 µM,0.738 µM,0.699 µM,"CCc1cccc2cccc(-c3ncc4c(N5CCCOCC5)nc(OCC56CCCN5CCC6)nc4c3F)c12 [Example 334, 4-(7-(8-ethylnaphthalen-1-yl)-8-fluoro-2-((hexahydro-1H-pyrrolizin-7a-yl)methoxy)pyrido[4,3-d]pyrimidin-4-yl)-1,4-oxazepane]"
7.83 µM,84.5 µM,≥ 100 µM,"O=C1CC2CCN(c3nc(OCC45CCCN4CCC5)nc4c(F)c(-c5cccc6cccc(F)c56)ncc34)CC2C(=O)N1 (stereo not drawn) [Example 335, 7-(8-fluoro-7-(8-fluoronaphthalen-1-yl)-2-((hexahydro-1H-pyrrolizin-7a-yl)methoxy)pyrido[4,3-d]pyrimidin-4-yl)hexahydro-2,7-naphthyridine-1,3(2H,4H)-dione]"
0.044 µM,0.009 µM,0.008 µM,"CCc1c(F)ccc2cc(O)cc(-c3ncc4c(NCCC5CCNC5=O)nc(OC[C@@]56CCCN5C[C@H](F)C6)nc4c3F)c12 (stereo partly drawn) [Example 375, 3-(2-((7-(8-ethyl-7-fluoro-3-hydroxynaphthalen-1-yl)-8-fluoro-2-(((2R,7aS)-2-fluorohexahydro-1H-pyrrolizin-7a-yl)methoxy)pyrido[4,3-d]pyrimidin-4-yl)amino)ethyl)pyrrolidin-2-one]"
